The source of these data is patent US9499493B2, “2,4-pyrimidinediamine compounds and their uses” (Rigel Pharmaceuticals, Inc., priority 2002, dated 2016).

The test system of experiment [1] is bone marrow derived mast cells (BMMC). The experiment can be described thus: BMMC high cell density IgE activation: hexosaminidase. The format is cell-based, mouse. The note with it: anti-IgE, second part of TABLE 1, read-out: BMMC anti-IgE hexos. IC50. The method, boiled down: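 IgE-sensitized BMMC at 1-3×10^6 cells/ml preincubated 1 hour at 37° C. with compound (0.5% DMSO), then stimulated 1 hour with DNP-BSA (6× stimulus 60 ng/ml). Supernatant hexosaminidase measured with 2 mM 4-methylumbelliferyl-N-acetyl-glucosaminide substrate at 37° C., read at 5–30 minutes.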

The subject of experiment [2] is basophil cells. The experiment can be described thus: Basophil IgE activation: histamine release assay. The note with it: Basophils, anti-IgE. The format is cell-based, human. The method, then:
(§1) The basophil activation assay was carried out using whole human peripheral blood from donors allergic to dust mites with the majority of the red blood cells removed by dextran sedimentation. Human peripheral blood was mixed 1:1 with 3% dextran T500 and RBCs were allowed to settle for 20-25 min. The upper fraction was diluted with 3 volumes of D-PBS and cells were spun down for 10 min at 1500 rpm, RT. Supernatant was aspirated and cells were washed in an equal volume MT-buffer. Finally, cells were resuspended in MT-buffer containing 0.5% DMSO in the original blood volume. 80 uL cells were mixed with 20 uL compound in the presence of 0.5% DMSO, in triplicate, in a V-bottom 96-well tissue culture plate. A dose range of 8 compound concentrations was tested resulting in a 10-point dose response curve including maximum (stimulated) and minimum (unstimulated) response. […] The cells were stimulated for 30 minutes at 37° C., 5% CO2. The plate was spun for 10 min at 1500 rpm at room temperature and 80 uL the supernatant was harvested for histamine content analysis using the histamine ELISA kit supplied by Immunotech. The ELISA was performed according to supplier's instructions.

Experiment [3] concerns basophil cells. The experiment can be described thus: Basophil ionomycin activation: histamine release assay. The format is cell-based, human. The note with it: Basophils. The method, then: as §1
Assays for ionomycin-induced basophil cell degranulation were carried out as described for the Basophil IgE or Dustmite Activation Assay (Section 6.4.6, supra), with the exception that following incubation with compound, cells were stimulated with 20 μl of 2 μM ionomycin.

Experiment [4] has as its system bone marrow derived mast cells (BMMC). The experiment can be described thus: BMMC high cell density ionomycin activation: hexosaminidase. It is filed as cell-based, mouse. Conditions: second part of TABLE 1, read-out: BMMC Ionomycin hexos. IC50.
The subject of experiment [5] is cultured human mast cells (CHMC). The experiment can be described thus: CHMC low cell density IgE activation: tryptase assay. It is filed as cell-based. The note with it: anti-IgE. In a few lines:
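Supernatant tryptase activity, assayed with substrate for 30 min at room temperature, served as the degranulation measure. Mast cells (1000-1500 per well depending on donor) sat 1 hr at 37° C in MT before a 30 min anti-IgE challenge at 37° C.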

The test system is the same in experiment [6]. The experiment can be described thus: CHMC low cell density ionomycin activation: tryptase assay. It is filed as cell-based.
Experiment [7] in a line: Mouse model of allergic asthma (ovalbumin). It is filed as in vivo. An excerpt:
Mice are sensitized to ovalbumin (chicken protein) in the presence of an adjuvant (Alum) by the intraperitoneal route on day 0 and day 7. One week later, mice are challenged intranasally with ovalbumin on Days 14, 15 and 16 (more stringent model) or on Day 14 (less stringent model). This sensitization and challenge regimen leads to airway hyperresponsiveness and inflammation in the lungs, which are two dominant characteristics of human allergic asthma. In the mouse model, the in vivo airway responses are measured using a whole body plethysmograph which determines the PENH (enhanced Pause, Buxco Electronics). The PENH is a dimensionless value comprised of the peak inspiratory flow (PIF), peak expiratory flow (PEF), time of inspiration, time of expiration and relaxation time, and is considered a validated parameter of airway responsiveness. Responses to allergen challenge (OVA) are compared with animals challenged with saline only. Twenty-four hours after challenge, mice are exposed to increasing doses of methacholine (muscarinic receptor agonist) which results in smooth muscle contraction. […] In addition, a cellular infiltrate in the airway is observed in ovalbumin challenged mice when compared with the saline challenged mice. This cellular infiltrate is mainly characterized by eosinophils, but a smaller influx of neutrophils and mononuclear cells is also present.
The use of this model for the evaluation of small molecule inhibitors of mast cell degranulation has been validated is several ways. First, using mast cell deficient mice (W/W^v) it has been shown that the ovalbumin-induced responses are dependent upon the presence of mast cells.

Experiment [8] has as its system CHMC cells. The experiment can be described thus: Phosphorylation of proteins downstream of Syk / LYN kinase in the FcεRI cascade, activated CHMC cells. The note with it: FIG. 10. It is filed as cell-based, human.
Experiment [9] is described as follows: Immediacy (time course) of inhibitory activity. The format is cell-based. Conditions: FIG. 5.
The subject of experiment [10] is cultured human mast cells (CHMC). The experiment can be described thus: CHMC high cell density IgE activation: hexos (hexosaminidase) release. The format is cell-based. Conditions: anti-IgE activation. The method, boiled down: (§2)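 IgE-sensitized CHMC at 1-2×10^6 cells/ml were pretreated with compound for 1 h at 37 °C (0.5% DMSO final), then anti-IgE-stimulated for 1 h and supernatant collected. Hexosaminidase was read with a fluorogenic substrate. Pellets were re-incubated 7 h with compound before supernatant ELISAs.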

The test system is the same in experiment [11]. The experiment can be described thus: CHMC high cell density IgE activation: histamine. It is filed as cell-based. The note with it: anti-IgE activation. In a few lines: as §2
The test system is the same in experiment [12]. The experiment can be described thus: CHMC high cell density IgE activation: TNFalpha. It is filed as cell-based. The note with it: anti-IgE activation; read-out: CHMC high density TNF-alpha. In a few lines:
as §2

For experiment [13], the system named is bone marrow derived mast cells (BMMC). The experiment can be described thus: BMMC high cell density IgE activation: histamine. The note with it: anti-IgE, second part of TABLE 1. The format is cell-based, mouse. In a few lines: (§3)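 IgE-sensitized BMMC (1-3×10^6 cells/ml, MT buffer) were pretreated with compound for 1 h at 37 °C in 0.5% DMSO, then stimulated with DNP-BSA (6× stimulus, 60 ng/ml) for 1 h. Supernatant was taken, and cells were re-incubated 4–5 h in WEI-conditioned medium with compound. Mediators were quantified by ELISA.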

For experiment [14] the test system is unchanged. The experiment can be described thus: BMMC high cell density IgE activation: LTC4. It is filed as cell-based, mouse. Conditions: anti-IgE, second part of TABLE 1. The method, boiled down:
as §3

Experiment [15] shares this test system. The experiment can be described thus: BMMC high cell density IgE activation: TNFalpha. The format is cell-based, mouse. Conditions: anti-IgE, second part of TABLE 1, read-out: BMMC anti-IgE TNF-alpha IC50. The method, boiled down: as §3
Experiment [16] relates to Jurkat cells. The experiment can be described thus: Jurkat toxicity, Cell Titer Glo assay. The format is cell-based. The note with it: 18 hours incubation. As to the method: Seed 50 μl cells (1×10^6/ml) into each well containing 50 μl compound. […] Shake plates for 1 minute to mix cells and compound. Incubate plates at 37° C. […] Next day, harvest 50 μl cells from each well, add to 50 μl Cell Titer Glo reagent ([…]). Shake plates for 1 minute. Read on luminometer.

The subject of experiment [17] is B-cell line BJAB. The experiment can be described thus: BJAB toxicity, Cell Titer Glo assay. It is filed as cell-based. The note with it: 18 hours incubation. The method, then:
Seed 50 μl cells (1×10^6/ml) into each well containing 50 μl compound. The final vehicle concentration is 0.5% DMSO, 1.5% MeOH. Shake plates for 1 minute to mix cells and compound. Incubate plates at 37° C. (5% CO2) for 18 hours. Next day, harvest 50 μl cells from each well, add to 50 μl Cell Titer Glo reagent ([…]). Shake plates for 1 minute. Read on luminometer.

Experiment [18] in a line: Sheep model of allergic asthma (Ascaris suum challenge). The format is in vivo. Conditions: aqueous suspension. The method, then: Sheep develop bronchoconstriction within minutes of exposure to inhaled antigen (Ascaris suum), with maximal airflow obstruction during the early allergic response (EAR). Release of preformed mast cell mediators is likely responsible for this early phase of airflow obstruction. […] In the sheep, AHR develops a few hours following antigen challenge, and can persist for up to 2 weeks.
In the sheep model of allergic asthma, sheep are administered aerosols of test article via an endotracheal tube, followed by an aerosol challenge with antigen extracted from the roundworm, Ascaris suum, to which the sheep are naturally allergic. Allergen challenge leads to direct bronchoconstriction (both EAR and LAR) and a persistent non-specific AHR. These three characteristics are similar to those seen in human allergic asthmatics. The activity of the test agent is determined by changes in the lung resistance (RL), which is calculated from measurements of transpulmonary pressure, flow, and respiratory volume. […] The LAR is a less pronounced increase in RL, which starts approximately 5-6 hours following allergen challenge and is resolved by 8 hours post-challenge. Twenty-four hours after the challenge, a dose response to carbachol is measured to determine the AHR, which is expressed as the dose of carbachol required to increase RL by 400% over baseline. (This measurement is referred to as the provocative concentration of carbachol that elicits a 400% increase in RL over baseline (PC400). The data are compared to historical control data for the same individual when administered a saline control aerosol and challenged with Ascaris suum.

Setting [19] is: 45 mg/sheep, pretreatment 60 min.

In the case of `Fc1cnc(Nc2ccc3c(c2)OC(F)(F)C(F)(F)O3)nc1Nc1ccc2c(c1)OC(F)(F)C(F)(F)O2` [R926037, N2,N4-Bis(3,4-tetrafluoroethylendioxyphenyl)-5-fluoro-2,4-pyrimidinediamine], the IC50 in [1], in experiment [2], in experiment [3] and in [4] was more than 10000 nM throughout.

`CNC(=O)COc1cccc(Nc2ncc(F)c(Nc3ccc4c(n3)NC(=O)CO4)n2)c1` [R921304, 5-Fluoro-N2-(3-methylaminocarbonylmethyleneoxyphenyl)-N4-[2H-pyrido[3,2-b]-1,4-oxazin-3(4H)-one-6-yl]-2,4-pyrimidinediamine]: the IC50 in experiment [5] was 85 nM; in experiment [6], more than 10000 nM. Also, in [7] (intranasal, 20 mg/kg, 10 consecutive days (Day 7 through Day 16)), the “ovalbumin-induced airway hyperresponsiveness to methacholine” value is listed as “able to inhibit”.

For the molecule `CCCC1O[C@@H]2C[C@H]3[C@@H]4CCC5=CC(=O)C=C[C@]5(C)[C@H]4[C@@H](O)C[C@]3(C)[C@]2(C(=O)CO)O1` (stereo partly drawn) [budesonide], the methacoline-induced bronchocontriction result in experiment [7] (mouse, in vivo) is recorded as “inhibitory effect”.

With `CC(C)(C)n1nc(-c2ccc(Cl)cc2)c2c(N)ncnc21` [PP2, reference compound], in experiment [8], the “phosphorylation of proteins downstream of LYN kinase” value was “inhibition”.

Take `O=C(O)c1cc(=O)c2c(OCC(O)COc3cccc4oc(C(=O)O)cc(=O)c34)cccc2o1` [Cromolyn]: the “ovalbumin-induced airway hyperresponsiveness and inflammation” value in experiment [7] (data not shown) is on record as “able to block”.

In the case of `CNC(=O)COc1cccc(Nc2ncc(F)c(Nc3ccc4c(c3)OCCO4)n2)c1` [R926495, N4-(3,4-Ethylenedioxyphenyl)-5-fluoro-N2-[3-(N-methylamino)carbonylmethyleneoxyphenyl]-2,4-pyrimidinediamine], the “onset of inhibitory activity” value in experiment [9] is listed as “immediacy of the inhibitory activity”. In addition, the IC50 is more than 10000 nM in experiment [6]; 100 nM in experiment [10]; 66 nM in experiment [11]; 362 nM in experiment [12]; 56 nM in [1]; 89 nM in experiment [13]. For the same molecule, the IC50 was 240 nM in experiment [14]; 77 nM in [15]; more than 10000 nM in [3]; more than 10000 nM in experiment [16]; more than 10000 nM in experiment [17]. Also, in experiment [18] (45 mg/sheep, 60 minutes prior to allergen challenge), the “LAR and AHR (in words)” value is “blocked”. Also, the “AHR (% inhibition)” value in [18] (setting [19]) came out at 41%. Further, the “EAR (% inhibition)” value in experiment [18] (setting [19]) was determined as 33%. In [18] (setting [19]), the “LAR (% inhibition)” value was found to be 85%. Besides, the “EAR (in words)” value in experiment [18] is “greatly reduced”.
